The test system of assay [1] is NIH 3T3 cells. The experiment in a line: Pseudopodia retraction after removal of the LPA gradient. The class given is cell-based, mouse. As for the experimental part:
(§1) Pseudopodia extension was monitored using a pseudopodia assay kit (ECM 650; Chemicon International) or Costar chambers. Serum-starved cells (75,000) were placed into the upper compartment of a chamber ([…]) equipped with a 3.0-μm porous polycarbonate membrane coated on both sides with an optimal amount of ECM protein (5 μg/ml fibronectin or collagen type I). Cells were allowed to attach and spread on the upper surface of the membrane for 2 h, and then stimulated with LPA (Sigma-Aldrich), insulin, or buffer only, which was placed in the lower chamber to establish a gradient or placed in the upper and lower chamber to form a uniform concentration. Cells were allowed to extend pseudopodia through the pores toward the direction of the gradient for various times. To initiate pseudopodia retraction, the chemoattractant was removed or an equivalent amount of chemoattractant placed in the upper chamber to create a uniform concentration. The cell body on the upper surface was manually removed with a cotton swab and the total pseudopodia protein only on the undersurface was determined using BCA and a microprotein assay system (Pierce Chemical Co.). Additionally, pseudopodia can be stained with 1% crystal violet in 2% ethanol and then the dye eluted with 10% acetic acid, which can be measured in an ELISA plate reader (OD 600) for comparison to a standard curve as previously described (Klemke et al., 1998).
Pseudopodia retraction was studied via the following methods. Pseudopodia extension of NIH 3T3 cells through 3.0-μm pores toward an LPA gradient was examined at 60, 120, 180 and 240 minutes, or the LPA gradient was removed after 60 min and pseudopodia were allowed to retract for the indicated times (LPA Removed). Total pseudopodia protein on the underside of the membrane was determined as described in Example 1.
Pseudopodia were allowed to extend for 60 min (time 0) toward an LPA gradient as described above. The gradient was then removed and pseudopodia were fixed at the indicated times (0, 30, 60, 120 minutes). […]

For assay [2], the system named is NIH 3T3 cells. The experiment in a line: Cell migration through 8.0-μm porous Boyden chambers, gradient or uniform chemokine. The class given is cell-based, mouse. To be noted: for chemoattractant activity (directed cell migration toward a gradient) / random cell migration: NIH 3T3, 8.0-μm pores; for chemoattractant activity (directed cell migration toward a gradient): 3 h; for random cell migration: uniform concentration. As for the experimental part:
as §1
(§2) NIH 3T3 cells were examined for cell migration for 3 h in 8.0-μm porous Boyden chambers containing different concentrations of LPA or insulin placed in 1) the bottom, 2) top, or 3) top and bottom compartments. The number of migratory cells per microscopic field (200×) on the underside of the membrane was counted as described in Example 1 above. Additionally, COS-7 cells were examined for cell migration as described above with respect to NIH 3T3 cells. […] In FIG. 1, each point on the graphs represents the mean±SEM of three triplicate migration chambers of three independent experiments.

The test system of the next assay is COS-7 cells. The assay is described as above. The assay is classed as cell-based. To be noted: for chemoattractant activity (directed cell migration toward a gradient) / random cell migration: COS-7, 8.0-μm pores; for random cell migration: uniform concentration. The protocol: as §1, §2
Assay [3] deals with NIH 3T3 cells. As to the kind of experiment: Pseudopodia extension through 3.0-μm porous membranes toward LPA. The assay is classed as cell-based, mouse. The following applies: 3.0-μm pores. The protocol:
as §1
NIH 3T3 cells were allowed to attach to fibronectin coated 3.0-μm porous membranes for 2 h. Pseudopodia extension was then examined for various times in the absence (NT) or presence of LPA (100 ng/ml) in the bottom, top, or top and bottom compartments. Pseudopodia protein on the underside of the membrane was determined as described in Example 1. Results are set forth in FIG. 2, where each point in the graphs represents the mean±SEM of three triplicate membranes of three independent experiments. COS-7 cells were examined for pseudopodia protrusion in the same manner as for NIH 3T3 cells as described above.
Confocal images of NIH 3T3 pseudopodia protrusion on the undersurface of a 3.0-μm porous membrane in response to LPA (100 ng/ml) as a gradient (LPA bottom) or uniform concentration (LPA top and bottom) were generated. Cells were labeled with cell tracker green and then fixed at the indicated times to visualize protruding pseudopodia on the undersurface of the membrane.

Where [4] appears, read: LPA gradient removed after 60 min extension.
The mark [5] stands for this setting: listed as lysophosphatidic acid.

As for lysophosphatidic acid [LPA], the “cells displaying pseudopodia retraction” value in the assay with NIH 3T3 cells [1] (setting [4]) is given as over 80%. Further, the “onset of pseudopodia retraction after removing the gradient” value with NIH 3T3 cells [1] (setting [4]) was at most 5 min. In addition, in the assay with NIH 3T3 cells [1] (LPA gradient restored after removal), the “effect of restoring the gradient on retracting pseudopodia” value is “inhibited the retraction process and induced pseudopodia growth”. Also, the “chemoattractant activity (directed cell migration toward a gradient)” value (“chemoattractant activity” below) is listed as “true chemoattractant” with NIH 3T3 cells [2]; “potent chemoattractant” in the assay on NIH 3T3 cells [2] (listed as LSA); “potent chemoattractant” in the assay with NIH 3T3 cells [2] (setting [5]); “true chemoattractant” with COS-7 cells; “potent chemoattractant” with COS-7 cells (listed as LSA); “potent chemoattractant” in the assay on COS-7 cells (setting [5]). Also, the random cell migration entry in the assay on NIH 3T3 cells [2] and with COS-7 cells was “does not facilitate random cell migration” throughout. In addition, the “concentration at which chemotaxis reached a maximum” value in the assay on NIH 3T3 cells [2] (NIH 3T3, dose dependent) was 100 to 200 ng/mL; with COS-7 cells (COS-7, dose dependent), 100 to 200 ng/mL. Moreover, the “pseudopodia extension, gradient versus uniform concentration” value in the assay with NIH 3T3 cells [3] (LPA gradient but not uniform concentration) is given as “extend pseudopodia through small pores specifically in the direction of the gradient”. In the assay with NIH 3T3 cells [3] (LPA gradient), the “time at which extension of pseudopodia was first detected after exposure to the gradient” value lay within 10 to 15 min. For the same substance, the “time over which pseudopodia extension proceeded linearly” value in the assay with NIH 3T3 cells [3] (LPA gradient) fell in the range of 60 to 90 min. Besides, the “cells polarized by extending pseudopodia” value in the assay on NIH 3T3 cells [3] (LPA gradient, confocal microscope) was over 90%.
With insulin, in the assay on NIH 3T3 cells [2], the “chemoattractant activity” value is recorded as “poor chemoattractant” and the random cell migration result was “promoted random migration”. Further, in the assay on COS-7 cells, the “chemoattractant activity” value is listed as “poor chemoattractant” and the random cell migration result is reported as “promoted random migration”.

These data come from patent publication US20030224398A1, “Purification of the leading front of migratory cells” (priority 2002, published 2003).
